Measured values: the Kinase Knowledgebase extract (Sharma et al. 2016)

Target: EGFR (UniProt P00533)
Assay: Inhibition of EGFR Kinase Activity

Chain of EGFR (P00533 whole entry, looked up): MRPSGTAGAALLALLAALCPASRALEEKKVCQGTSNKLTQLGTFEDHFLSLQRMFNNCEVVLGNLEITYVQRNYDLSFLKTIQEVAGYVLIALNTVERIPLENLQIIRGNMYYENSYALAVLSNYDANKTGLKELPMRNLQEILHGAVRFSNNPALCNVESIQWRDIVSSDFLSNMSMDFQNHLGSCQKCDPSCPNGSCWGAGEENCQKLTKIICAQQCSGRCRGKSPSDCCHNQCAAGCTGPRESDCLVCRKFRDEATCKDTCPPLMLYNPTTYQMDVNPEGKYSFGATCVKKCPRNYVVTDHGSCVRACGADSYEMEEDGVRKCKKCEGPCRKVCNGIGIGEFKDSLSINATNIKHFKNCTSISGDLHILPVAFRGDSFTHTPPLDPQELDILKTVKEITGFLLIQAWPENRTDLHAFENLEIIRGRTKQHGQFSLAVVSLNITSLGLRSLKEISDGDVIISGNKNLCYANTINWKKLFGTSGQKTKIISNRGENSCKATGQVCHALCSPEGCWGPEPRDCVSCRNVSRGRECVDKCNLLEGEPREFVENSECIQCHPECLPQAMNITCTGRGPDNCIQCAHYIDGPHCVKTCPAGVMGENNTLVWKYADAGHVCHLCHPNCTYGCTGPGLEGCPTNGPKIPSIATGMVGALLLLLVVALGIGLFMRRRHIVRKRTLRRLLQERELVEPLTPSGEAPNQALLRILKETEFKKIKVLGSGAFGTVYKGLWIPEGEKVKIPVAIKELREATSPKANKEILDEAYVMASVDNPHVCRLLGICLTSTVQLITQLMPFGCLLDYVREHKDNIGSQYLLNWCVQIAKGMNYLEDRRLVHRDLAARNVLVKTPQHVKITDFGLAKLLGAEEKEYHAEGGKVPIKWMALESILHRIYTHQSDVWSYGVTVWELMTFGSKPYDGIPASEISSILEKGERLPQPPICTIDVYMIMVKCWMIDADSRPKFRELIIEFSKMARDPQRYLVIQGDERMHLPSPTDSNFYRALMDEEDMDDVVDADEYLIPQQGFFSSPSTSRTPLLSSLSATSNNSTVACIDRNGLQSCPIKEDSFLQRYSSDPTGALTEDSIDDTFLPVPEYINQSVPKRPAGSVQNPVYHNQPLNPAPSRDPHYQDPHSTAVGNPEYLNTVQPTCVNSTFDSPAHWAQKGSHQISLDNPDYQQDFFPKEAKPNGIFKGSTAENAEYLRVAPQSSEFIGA

IC50, < 50 µM:
C=CC(=O)N(CCCN1CCOCC1)c1cccc(Nc2ncnc(NC3CC3c3ccc(Cl)cc3)n2)c1 (centres undefined)
C=CCN(c1ncnc(Nc2cccc(NC(=O)C#CC)c2)n1)n1c(=O)[nH]c2ccccc21
C=CCC(=O)Nc1cccc(Nc2ncnc(Nc3ccc4NN(=Cc4c3)Cc5ccccn5)n2)c1
C=CCN(c1cccc(CC(=O)OC)c1)c1ncnc(Nc2cccc(NC(=O)C=C)c2)n1
C=CC(=O)Nc1cccc(Nc2ncnc(Nc3cccc(C(N)=O)c3)n2)c1
C=CC(=O)N(OCCCC1CCN(C)CC1)c1cccc(Nc2ncnc(NN3CCCc4ccc(Cl)cc43)n2)c1
C#CCC(=O)Nc1cccc(Nc2ncnc(NN3CCCc4cc(OC)ccc43)n2)c1
CC#CC(=O)Nc1cc(Nc2ncnc(N(C)c3ccc(OCc4ccccc4)c(Cl)c3)n2)ccc1OCCCN1CCOCC1
C=CC(=O)Nc1cccc(Nc2ncnc(Nc3ccc(OCC)c(OCC)c3)n2)c1
C=CC(=O)Nc1ccc(Nc2ncnc(N(C)c3cc(OC)c(OC)c(OCCN4CCOCC4)c3)n2)cc1
C=CC(=O)Nc1ccc(Nc2ncnc(Nc3cccc(OCCOC)c3)n2)cc1
CC#CC(=O)Nc1cccc(Nc2ncnc(N(C)c3ccc4c(ccn4Cc4ccccc4)c3)n2)c1
CC#CC(=O)Nc1cc(Nc2ncnc(N(C)c3ccc4c(cnn4Cc4ccccc4)c3)n2)ccc1OCCCC1CCN(C)CC1
C=CC(=O)Nc1cccc(Nc2ncnc(N(C)c3cc(OC)c(OC)c(OCCN4CCOCC4)c3)n2)c1
C=CC(=O)Nc1cccc(Nc2ncnc(N(CC)c3ccc(OCCC)c(OCCC)c3)n2)c1
CC#CC(=O)Nc1cc(Nc2ncnc(Nc3ccc(OCc4ccccc4)c(Cl)c3)n2)ccc1OCCCC1CCN(C)CC1
CC#CC(=O)Nc1cccc(Nc2ncnc(N(C)c3ccc(OC)c(OCCOC)c3)n2)c1
CC#CC(=O)Nc1cccc(Nc2ncnc(N(CC)c3cccc4ccccc34)n2)c1
C=CC(=O)Nc1cccc(Nc2ncnc(Nc3cc(OC)c(OC)c(OCCN4CCOCC4)c3)n2)c1
C=CC(=O)Nc1ccc(Nc2ncnc(N(CC)c3ccc(OCCC)c(OCCC)c3)n2)cc1
CC#CC(=O)Nc1cccc(Nc2ncnc(N(C)c3cc(OC)c(OC)c(OCCN4CCOCC4)c3)n2)c1
C=CCN(c1ncnc(Nc2cccc(NC(=O)C#CC)c2)n1)c1cccc2ccccc12
CC#CC(=O)Nc1cccc(Nc2ncnc(N(C)c3cccc(S(=O)(=O)c4ccc([N+](=O)[O-])cc4)c3)n2)c1
CC#CC(=O)Nc1cccc(Nc2ncnc(N(C)n3c(=O)n(C(=O)C(C)(C)C)c4ccccc43)n2)c1
C=CC(=O)N(CCCN1CCOCC1)c1cccc(Nc2ncnc(N(C)c3ccc4c(cnn4Cc4ccccc4)c3)n2)c1
CC#CC(=O)Nc1cccc(Nc2ncnc(N(CC)c3ccc(OCCC)c(OCCC)c3)n2)c1
C=CCN(c1cccc(C(N)=O)c1)c1ncnc(Nc2cccc(NC(=O)C=C)c2)n1
C=CC(=O)Nc1cc(Nc2ncnc(N(C)c3ccc(OCc4ccccc4)c(Cl)c3)n2)ccc1OCCCN1CCOCC1
C=CC(=O)Nc1cccc(Nc2ncnc(Nc3ccc4c(cnn4Cc4cccc(F)c4)c3)n2)c1
CC#CC(=O)Nc1cccc(Nc2ncnc(N(CC)c3cc(OC)c(OC)c(OCCN4CCOCC4)c3)n2)c1
C=CC(=O)Nc1cccc(Nc2ncnc(NN3CCCc4cc(C)ccc43)n2)c1
C=CC(=O)Nc1ccc(Nc2ncnc(N(C)c3ccc(C(=O)OC)cc3)n2)cc1
C=CC(=O)Nc1ccc(Nc2ncnc(N(C)c3cccc(Cl)c3)n2)cc1
C=CC(=O)Nc1cccc(Nc2ncnc(Nc3ccc4c(cnn4Cc4ccccc4)c3)n2)c1
C=CC(=O)Nc1ccc(Nc2ncnc(N(CC)c3ccc(OCC)c(OCC)c3)n2)cc1
C=CC(=O)Nc1cccc(Nc2ncnc(N(CC)c3ccc(OCCOC)c(OC)c3)n2)c1
CC#CC(=O)Nc1cccc(Nc2ncnc(N(CC)c3ccc(OCc4ccccc4)cc3)n2)c1
C=CCN(c1ccc(OC)c(OCCOC)c1)c1ncnc(Nc2cccc(NC(=O)C=C)c2)n1
C=CCN(c1cccc(S(=O)(=O)c2ccc([N+](=O)[O-])cc2)c1)c1ncnc(Nc2cccc(NC(=O)C#CC)c2)n1
C=CC(=O)Nc1cccc(Nc2ncnc(N(C)c3ccc4c(ccn4Cc4ccccc4)c3)n2)c1
C=CCC(=O)Nc1cccc(Nc2ncnc(Nc3cccc(Cl)c3)n2)c1
C=CC(=O)Nc1cccc(Nc2ncnc(N(CC)c3ccc(OCC)c(OCC)c3)n2)c1
C=CC(=O)Nc1cccc(Nc2ncnc(N(C)n3c(=O)n(C(=O)C(C)(C)C)c4ccccc43)n2)c1
C=CC(=O)Nc1cc(Nc2ncnc(N(C)c3ccc4c(cnn4Cc4ccccc4)c3)n2)ccc1OC
C=CC(=O)Nc1ccc(Nc2ncnc(N(C)c3cc(Cl)ccc3C)n2)cc1
C=CCN(c1ncnc(Nc2cccc(NC(=O)C=C)c2)n1)c1cccc2ccccc12
C=CCN(c1ccc2c(cnn2Cc2ccccc2)c1)c1ncnc(Nc2cccc(NC(=O)C#CC)c2)n1
C=CC(=O)N1CCc2cc(Nc3ncnc(Nc4ccc5c(cnn5Cc5ccccc5)c4)n3)ccc21
C=CCN(c1ncnc(Nc2cccc(NC(=O)C=C)c2)n1)C1CC1c1ccc(Cl)cc1 (centres undefined)
C=CC(=O)Nc1cccc(Nc2ncnc(N(CC)c3ccc4c(cnn4Cc4ccccc4)c3)n2)c1
CC#CC(=O)Nc1cccc(Nc2ncnc(n2)N(CC=C)c3ccc4NN(=Cc4c3)Cc5ccccn5)c1
C=CCN(c1ccc(OCCO)cc1)c1ncnc(Nc2cccc(NC(=O)C=C)c2)n1
C=CCN(c1cccc(S(=O)(=O)c2ccc([N+](=O)[O-])cc2)c1)c1ncnc(Nc2ccc(NC(=O)C=C)cc2)n1
C=CC(=O)Nc1cccc(Nc2ncnc(N(CC)c3ccc(OC)c(OC)c3)n2)c1
C=CC(=O)Nc1cccc(Nc2ncnc(NN3CCCc4ccc(C(F)(F)F)cc43)n2)c1
C=CC(=O)Nc1ccc(Nc2ncnc(N(C)c3ccc(OC)c(OC)c3)n2)cc1
C=CC(=O)Nc1ccc(Nc2ncnc(Nc3ccc(OCCC)c(OCCC)c3)n2)cc1
CC#CC(=O)Nc1cccc(Nc2ncnc(Nc3ccc4c(cnn4Cc4ccccc4)c3)n2)c1
C=CC(=O)Nc1ccc(Nc2ncnc(Nc3cccc(CC(=O)OC)c3)n2)cc1
